The subject of data set [1] is Bacillus subtilis ATCC 6633. In words: Antimicrobial spectrum (MIC), two-fold serial dilution. Type of data set: cell-based. The note with it: ATCC6633, nutrient agar medium. As to the method:
(§1) The antibacterial and antifungal spectra of Substance 4181-2 were investigated. Using nutrient agar medium for gram-positive and gram-negative bacteria and Sabouraud's agar medium for fungi, the minimal inhibitory concentration (MIC) was determined by a two-fold serial dilution method.

The subject of data set [2] is Pseudomonus fluorescens IFO 12180. The description is as above. In kind it is cell-based. The note with it: nutrient agar medium. As to the method:
as §1

Data set [3] has as its system Trichophyton mentagrophytes IFO 5466. The description is as above. Type of data set: cell-based. The conditions noted are these: IFO5466, Sabouraud's agar medium. As to the method:
as §1

The subject of data set [4] is Klebsiella pneumoniae ATCC 10031. The data set is described as above. Type of data set: cell-based. The conditions noted are these: ATCC10031, nutrient agar medium. The method, then:
as §1

The subject of data set [5] is Escherichia coli B IFO 13168. The description is as above. Type of data set: cell-based. The conditions noted are these: IFO13168, nutrient agar medium. As to the method: as §1
For data set [6], the system named is Penicillium notatum IFO 4640. Described as above. In kind it is cell-based. The conditions noted are these: Penicillium chrysogenum, IFO4640, Sabouraud's agar medium. The method, then: as §1
In data set [7] the test system is Staphylococcus aureus 209P. The description is as above. In kind it is cell-based. The note with it: nutrient agar medium. The method, then:
as §1

Data set [8] concerns Saccharomyces delbrueckii IAM 12236. The data set is described as above. Type of data set: cell-based. The conditions noted are these: Torulaspora delbrueckii, IAM12236, Sabouraud's agar medium. The method, then: as §1
In data set [9] the test system is Aspergillus niger IFO 6341. The description is as above. Type of data set: cell-based. The conditions noted are these: IFO6341, Sabouraud's agar medium. As to the method: as §1
The subject of data set [10] is Micrococcus flavus ATCC 10240. The description is as above. Type of data set: cell-based. The note with it: ATCC10240, nutrient agar medium. As to the method:
as §1

Data set [11] deals with Candida albicans IFO 1061. The data set is described as above. Type of data set: cell-based. The conditions noted are these: IFO1061, Sabouraud's agar medium. As to the method:
as §1

In data set [12] the test system is Proteus vulgalis IFO 3045. Described as above. In kind it is cell-based. The note with it: nutrient agar medium. The method, then:
as §1

Data set [13] can be described thus: Acute toxicity study (up-and-down method). Also noted: species or system mice of ddY strain. The note with it: mouse, in vivo, ip, intraperitoneal, male ddY mice, 25 g. As to the method: Male mice of ddY strain (body weight 25 g) were used. Each of Compounds 1-4 was suspended in 0.2% solution of Tween 80 in physiological saline and administered intraperitoneally to the animals. The LD50 values (mg/kg) were determined by the up-and-down method.

Another data set deals with leukemia P388 cells. Nature of the data set: Antitumor activity: life span-prolonging effect in mouse leukemia. In kind it is in vivo, BDF1 mice. The conditions noted are these: for % Increase in survival time / Mean survival time: 3 mg/kg intraperitoneally, day after i.p. injection of 1×10^6 P388 cells, BDF1 mice; for % Increase in survival time: ((D/D0)-1)×100 vs untreated; for Mean survival time: untreated control 9.3 ± 0.8 days. As to the method:
The antitumor activity of Substance 4181-2 and its derivatives was evaluated in terms of the increase in life span. One ×10^6 of leukemia P388 cells were intraperitoneally injected to BDF1 mice. Each group consisted of 6 mice. On the following day, each of Compounds 1-4, suspended in 0.2% solution of Tween 80 in physiological saline, was administered intraperitoneally and the survival time in days was determined. The percent increase in survival time was calculated by means of the following formula.
Percent increase in survival time=((D/D0)-1)×100 wherein D0 stands for the mean survival time (days) in the untreated group and D stands for the mean survival time (days) in the treated group.

In data set [14] the test system is microorganisms including gram-positive bacteria, gram-negative bacteria and fungi. Nature of the data set: Antimicrobial activity (summary statement). Type of data set: cell-based. As to the method:
as §1

The conditions of data set [15]: literature statement; cited from earlier work.

≈ marks a conversion by molar mass, not a printed value. Some results are limits rather than exact numbers.

As a reminder, the MIC is the lowest concentration that inhibits growth of the organism. Higher therefore signals a less susceptible organism. By LD50 is commonly meant the dose expected to kill half of the subjects tested. A higher LD50 goes with lower toxicity. Turning to `COc1cc2oc3c(c(=O)c2cc1O)C(=O)c1c(ccc2cc4c(c(O)c12)C(=O)N1CCOC1(C)C4)C3=O` (stereo not shown) [Compound 1, Substance 4181-2], the MIC stood at 0.2 µg/mL (≈ 0.39 µM) in data set [1]; 0.2 µg/mL (≈ 0.39 µM) in data set [2]; 0.78 µg/mL (≈ 1.52 µM) in data set [3]; 3.13 µg/mL (≈ 6.1 µM) in data set [4]; 1.56 µg/mL (≈ 3.04 µM) in data set [5]; 1.56 µg/mL (≈ 3.04 µM) in data set [6]. The minimal inhibitory concentration (MIC) in data set [7] came out at 0.2 µg/mL (≈ 0.39 µM); in data set [8], 1.56 µg/mL (≈ 3.04 µM); in data set [9], 3.13 µg/mL (≈ 6.1 µM); in data set [10], 0.2 µg/mL (≈ 0.39 µM); in [11] it was 0.39 µg/mL (≈ 0.76 µM); in data set [12] it was 0.39 µg/mL (≈ 0.76 µM). In data set [13], this compound registered an LD50 not below 40 mg/kg. The “% Increase in survival time” value with leukemia P388 cells was found to be 94%. In addition, the Mean survival time in the data set with leukemia P388 cells was determined as 18.0 ± 1.4 days. Moreover, the “antitumor activity (in words)” value in the data set with leukemia P388 cells (summary statement) is “excellent antitumor activity”. Moreover, the “antimicrobial spectrum (in words)” value in [14] is reported as “broad antimicrobial spectrum”.
As for `COc1cc2oc3c(c(=O)c2cc1OC(C)=O)C(=O)c1c(ccc2cc4c(c(OC(C)=O)c12)C(=O)N1CCOC1(C)C4)C3=O` (stereo not shown) [Compound 2, diacetyl derivative of Substance 4181-2], the LD50 in data set [13] is not below 40 mg/kg. Also, in the data set with leukemia P388 cells, the “% Increase in survival time” value was 59% and the Mean survival time was 14.8 ± 0.8 days.
Take `COc1cc2oc3c(c(=O)c2cc1OC)C(=O)c1c(ccc2cc4c(c(O)c12)C(=O)N1CCOC1(C)C4)C3=O` (stereo not shown) [Compound 3, monomethyl derivative of Substance 4181-2]: the LD50 in [13] is not below 40 mg/kg. Moreover, in the data set on leukemia P388 cells, the “% Increase in survival time” value came out at 63% and the Mean survival time worked out at 15.2 ± 1.7 days.
Taken in the same sequence, the figures for `COc1cc2oc3c(c(=O)c2cc1OC)C(=O)c1c(ccc2cc4c(c(OC(C)=O)c12)C(=O)N1CCOC1(C)C4)C3=O` (stereo not shown) [Compound 4, monomethyl monoacetyl derivative of Substance 4181-2] were not below 40 mg/kg, 53% and 14.2 ± 0.8 days.
With `COc1cc2oc3c(O)c4ccc5cc6c(c(O)c5c4c(O)c3c(=O)c2cc1OC)C(=O)N1CCOC1(C)C6` (stereo not shown) [cervinomycin A1], in data set [15], the “antimicrobial activity (in words)” value is “have antimicrobial activity”.
For `COc1cc2oc3c(c(=O)c2cc1OC)C(=O)c1c(ccc2cc4c(c(O)c12)C(=O)N1CCOC1(C)C4)C3=O` (stereo not shown) [cervinomycin A2], in [15], the “antimicrobial activity (in words)” value is listed as “have antimicrobial activity”.

Values taken from patent US4866069A, “Substance 4181-2 and its derivatives having anti-leukemia activity” (Taiho Pharmaceutical Company, Limited, priority 1986, dated 1989).
